Laboratory results reported in US9888679B2, “Protection of progenitor cells and regulation of their differentiation” (Proteobioactives Pty Ltd, priority 2007, dated 2018).

Experiments:
[1] = tested on: Human immunoselected Stro-1+ Progenitor cells; assay: Hyaluronan biosynthesis, 3H-glucosamine incorporation, Superdex-S200 before/after Hyalase, 9 day micromass; assay type: cell-based
Source text: FIG. 27. Chromatographic elution profiles showing the effects of polysulfated polysaccharides on the biosynthesis of Hyaluronan (HA) and by progenitor cells by measuring the incorporation of ^3H-glucosamine into HA. […] The % difference in areas under the profiles of the digested and pre-digested samples in the void volume fractions represents the amounts of ^3H-HA released into the media by the PPS concentration specified.
Human immunoselected Stro-1+ Progenitor cells (Mesoblast Ltd, Melbourne, Australia) were established in micromass cultures in 24 well plates using the method described above but seeding the progenitor cells at a density of 7×10^5 cells/well. After 24 hours in culture the media was changed and replaced with DMEM culture medium containing 10% FCS and 25 μg/ml gentamicin containing PPS (Bene-Arzneimittel, Munich, […]) which had been sterilised through a 0.22 μm filter. The cultures were incubated in 5% CO2/95% moist air at 37° C. for 8 days with media changes containing the indicated concentrations of PPS every 3 days. On the 8th day ^3H-glucosamine was added to culture medium containing the indicated concentrations of PPS to provide a solution containing 1.0 μCi/ml which was added to each well. The plates were incubated for a further 24 h. At termination of the cultures on day 9, media was collected into 5 ml capped tubes and stored at 4° C. prior to size exclusion chromatography as described below.
Two aliquots of 0.5 ml from each media sample were labelled A and B. 20 μl of 1 M acetic acid, pH 6.0 was added to all aliquots. 50 μl of reaction buffer (20 mM Na-acetate and 0.15 M NaCl, pH 6.0) was added to aliquot A and 50 μl of 5 TRU Streptomyces hyaluronidase (HYALASE) in reaction buffer was added to aliquot B. All samples were incubated at 60° C. for 3 h followed by boiling for 5 min to inactivate the added hyaluronidase. The samples were stored at −20° C. prior to gel filtration.
A Gel filtration column prepacked with Superdex-S200 was used to isolate and identify ^3H-HA and ^3H-PGs in culture media. Media samples were routinely centrifuged at high speed on a bench Microfuge for 10 min immediately before loading to the column. Samples (200 μl of each) were injected into the column through sample loop and the column was eluted with PBS buffer (0.15 M NaCl, 0.05 M Na2PO4, pH 7.2) at the flow rate of 0.2 ml/1 min. The column eluent was collected at 1.0 ml/fraction for total of 186 fractions and radioactivity was determined using a β-scintillation counter.

Primary progenitor cells = assay: Differentiation in adipogenic media: adipocyte formation, Oil Red O; assay type: cell-based, human; settings: FIG. 8; for differentiation of progenitor cells into adipocytes: adipogenic media, 1.0, 5.0, 10 micrograms/mL
Experimental: FIG. 8. The Effects of Pentosan Polysulfate (PPS) on Human progenitor cell Differentiation: Adipocyte Formation. Primary progenitor cells were cultured in 96 well plates in non-adipogenic growth media (media control) or under adipogenic conditions (0.5 mM methylisobutylmethylxanthine, 0.5 μM hydrocortisone, and 60 μM indomethacin) in the presence of PPS at the indicated concentrations. On day 28, the presence of lipid laden adipocytes was determined using the lipophilic dye Oil Red O. The relative amount of solubilised lipid per μg of DNA/well was determined following the assessment of the total amount of DNA per well using a fluorogenic DNA stain (Hoeshst 33258). […] (A) Phase-contrast photomicrographs of Oil Red O labeled adipocytes at ×20 magnification.
The conditions required for the development of lipids from human bone marrow stromal cells in vitro have been previously described (Gimble J. Marrow stromal adipocytes. In: Marrow stromal cell culture. J N Beresford, Owen, M. E., ed. Cambridge University Press, Cambridge, pp 67-87 (1998)). Briefly, human progenitor cells were seeded into 96-well plates at a density of 8×10^3 cells per well in complete alpha-MEM growth media and were allowed to reach >90% confluence prior to addition of inductive media. Cells were cultured in adipogenic-inductive media comprised of complete alpha-MEM supplemented with 0.5 mM 3-Isobutyl-1-methyl-xanthine (IBMX), 60 microM Indomethacin, and 0.5 microM Hydrocortisone in the presence of a titration of PPS (0.0, 1.0, 5.0, 10 micrograms/mL). The inductive media was changed twice weekly for a period of 4 weeks. Cells were stained for the presence of lipid using Oil Red ‘O’.
Cells were cultured as described above and gently rinsed in 1×PBS (pH7.4) to avoid disruption of the cell monolayer. Cells were fixed in phosphate buffered formalin for 15 minutes at RT. The fixative was subsequently removed and lipid stained by adding 100 microL of freshly filtered Oil Red O (3 mg/mL; MP Biomedicals, Australia) for ≧2 hours at RT. […]

pentosan polysulfate [PPS]
3H-glucosamine radioactivity incorporated into HA (media) ([1]; PPS 0.1 micrograms/mL (profile not shown)): 35.5%
levels of newly synthesized 3H-HA in the culture media ([1]; PPS 0.1 micrograms/mL and 1.0 micrograms/mL only): substantial increases
3H-glucosamine radioactivity incorporated into HA (media) ([1]; PPS 1 microgram/mL, FIG. 27C): 49.6%
radioactivity in post digestion void volume fractions of PG monomers ([1]; PPS 1 microgram/mL, FIG. 27C): 50.4%
3H-glucosamine incorporated into HA (media) ([1]; PPS 2.5 micrograms/mL): about 11%
PPS concentration of maximum synthesis of HA ([1]; micromass cultures, media): 1.0 micrograms/mL
biosynthesis of HA by cultured progenitor cells ([1]; micromass, FIG. 27): stimulates the biosynthesis of HA
3H-glucosamine radioactivity found in the HA fractions (media) ([1]; the lower concentration of PPS (FIG. 27B)): 15.1%
adipocyte number (Oil Red O lipid per μg DNA) (Primary progenitor cells; adipogenic conditions, day 28, PPS in excess 1 ug/ml, p<0.01, ANOVA): statistically significant increase in adipocyte number
differentiation of progenitor cells into adipocytes (Primary progenitor cells): upregulation seen at all concentrations
differentiation of progenitor cells into adipocytes (Primary progenitor cells; listed as polysulfated polysaccharides): showed differentiated to adipocytes
